Measurements: ChEMBL document CHEMBL1156667, “Dynamic nature of the ligustilide complex” (J Nat Prod, 2008)

Experiments:
Format in all cases: physicochemical
[1] = Chemical stability in heaxane; EtOAc:MeOH:H2O-7 (9:1:9:1) after 41 days by qHNMR experiment; details: hexane:EtOAc:MeOH:H2O (9:1:9:1) solvent mixture; read-out: Stability
[2] = Chemical stability in DMSO after 41 days; details: read-out: Stability
[3] = Chemical stability in MeOH after 41 days; details: read-out: Stability
[4] = Chemical stability in CDCl3 after 46 days by GC-MS analysis; details: read-out: Stability
[5] = Chemical stability in CDCl3 after 46 days by qHNMR experiment; details: read-out: Stability

`CCC/C=C1\OC(=O)C2=C1CCC=C2` [LIGUSTILIDE] showed a remaining at 984 h [1] of 0.8%, a remaining at 984 h [2] of 5.2% and a remaining at 984 h [3] of 4.4%. The remaining at 1104 h [4] was 91.6% and the remaining at 1104 h [5] was 78.1%.
